Reference: patent US6958215B1, “Methods and compositions for inhibition of RNA splicing” (priority 1999, dated 2005)
[np] = N3'→P5' phosphoramidate internucleoside linkage; d = 2'-deoxy (DNA); r = 2'-OH (RNA)

Legend:
[1] = test system: P. carinii rRNA precursor (P-h) containing a Group I intron; experiment: Oligonucleotide concentration dependence of cis- and trans-splicing, 3′ end radiolabeled P-h precursor; format: biochemical, Pneumocystis carinii; details: up to 30 μM oligonucleotide, 4 mM Mg2+
[2] = test system: P. carinii rRNA precursor (P-h) containing a Group I intron; experiment: Fate of 5′ end radiolabeled hexamer with unlabeled P-h precursor (trans-splicing); format: biochemical, Pneumocystis carinii; details: 0, 2, 3, or 15 mM Mg2+
Protocol: The fate of the hexamers, (dA)n(dT)n(dG)n(dA)n(dC)n(rU) [Seq. ID No:1] and (dC)n(dA)n(dG)n(dT)n(dA)n(rU) [Seq. ID No:5], was also analyzed using radiolabeled hexamer and unlabeled precursor in the presence and absence of pG colactor. Approximately 300 nM unlabeled P-h precursor was reannealed at 55° C. in 3 μL of the appropriate buffer for 5 min and slow cooled to 37° C. A 3 μL solution of […] 5′ end radiolabeled hexamer in the same buffer at 37° C. was added and the reaction was allowed to proceed for 1 h. The reaction was quenched by the addition of 6 μL of 2× stop buffer and the reactants and products were separated on a 10% polyacrylamide, 8 M urea gel. The gel was dried under vacuum and the bands quantified with a Molecular Dynamics phosphorimager.

[3] = test system: P. carinii rRNA precursor (P-h) containing a Group I intron; experiment: Inhibition of self-splicing, internally radiolabeled P-h precursor, gel assay; format: biochemical, Pneumocystis carinii; details: 2 mM Mg2+, up to 30 μM oligonucleotide, 1 mM pG
r(GGAGGC) = experiment: Base-pairing to r(GGAGGC), thermodynamic melts; format: binding; details: H15Mg buffer; for Kd: calculated from ΔG°37, read-out: Binding to r(GGAGGC) Kd,B.P.
C-10/1x ribozyme = experiment: Binding to C-10/1x ribozyme, competitive band-shift native electrophoresis; design: species or system Candida albicans; details: H15Mg buffer; for Binding to C-10/1x ΔG*37,C-10/1x: calculated from Kd, T = 310 K; for Tertiary Stability BETI (binding enhanced by tertiary interactions): calculated using Kd values; for Tertiary Stability ααG°37,BETI: difference in ΔG°37 for binding to C-10/1x and r(GGAGGC)
Protocol: C-10/1x is a Candida albicans rRNA Group I ribozyme. Dissociation constants for 5′ exon oligonucleotide mimics which bind to the C-10/1x ribozyme were measured by competitive band-shift native electrophoresis using methods described in Testa et al., Biochemistry 37:9379-9385 (1998). The results for a variety of oligonucleotides complementary or containing a one base mismatch to the C-10/1x 5′ exon guide sequence are shown in Table 2.

Substance | formation of trans-spliced product [1] | reactivity of 5′ radiolabeled hexamer with unlabeled precursor [2] | increase in the 5′ exon-intron product [3] | Binding to r(GGAGGC) ΔG°37,B.P. (r(GGAGGC)) | Kd (r(GGAGGC)) | Kd (C-10/1x ribozyme) | Binding to C-10/1x ΔG*37,C-10/1x (C-10/1x ribozyme) | Tertiary Stability BETI (binding enhanced by tertiary interactions) (C-10/1x ribozyme) | Tertiary Stability ααG°37,BETI (C-10/1x ribozyme)
(dC)n(dA)n(dG)n(dT)n(dA)n(rU) (CAGTAU; sugars from the 5' end d5 r1, all [np], methylation of C not given here) [reference compound] | not formed | not reactive | does not occur |  |  |  |  |  | 
r(GACUCU) [reference compound] |  |  |  | -2.1 kcal/mol | 600 µM | 0.0069 µM | -11.6 kcal/mol | 4800000 | -9.5 kcal/mol
r(GCCUCU) [reference compound] |  |  |  | -8.5 kcal/mol | 100 µM | 0.0007 µM | -13.0 kcal/mol | 1500 | -4.5 kcal/mol
